From patent US9487551B2, “Small molecule compounds that control mammal-pathogenic nematodes” (California Institute of Technology, priority 2011, dated 2016)
“Also recorded” adds a separate entry of the source.

How the values were obtained:
C. elegans [1] = assay: Spot attraction assay; type: in vivo
Method: The spot attraction assays were conducted according to a previously reported method (Pungaliya et al., PNAS 106:7708-13 (2009); Srinivasan et al., Nature 454:1115-18 (2008), which are hereby incorporated by reference in their entirety). For both C. elegans hermaphrodites and males, 50-60 worms were harvested daily at the fourth larval stage (L4) and stored segregatedly by sex at 20° C. overnight, to be used as young adults the following day. For the competition experiments, two conditions were used: 120 nM ascr#3 and 10 nM icas#3 (Condition 1), or 12 μM ascr#3 and 1 μM icas#3 (Condition 2) in water containing 10% ethanol. Aliquots were stored at −20° C. in 20 μL tubes. 10% ethanol in water was used as control.
Attraction assays with hbas#3 were conducted as previously reported (Srinivasan et al., Nature 454:1115-18 (2008); Pungaliya et al., Proc. Natl. Acad. Sci. U.S.A. 106:7708-13 (2009), which are hereby incorporated by reference in their entirety). For the attraction assays, 50-60 hermaphrodite worms were harvested daily at the early fourth larval stage (L4) and stored at 20° C. overnight to be used as young adults the following day. Hbas#3 was dissolved in water containing 10% ethanol. Aliquots were stored at −20° C. in 20 μL tubes. 10% ethanol in water was used as control.

C. elegans [2] = assay: Aggregation assay; type: in vivo
Method: Aggregation behavior of worms was measured using assays reported in de Bono & Bargmann, Cell 94:679-89 (1998), which is hereby incorporated by reference in its entirety. Aggregation assays were conducted on standard NGM plates. Plates containing indole ascarosides were made by adding the indole ascaroside stock solution to the NGM media before they were poured onto the plates. These plates were dried at room temperature for 2 to 3 days. Control plates were treated similarly, except that ethanol solutions instead of icas solutions were added to the plates, corresponding to the amount of ethanol introduced via the icas solutions. Final ethanol concentrations of the plates were below 0.1% for all conditions. After drying, both control plates and plates containing indole ascarosides were seeded with 150 μl of an overnight culture of E. coli OP50 using a micropipette, and were allowed to dry for 2 days at room temperature. For “low worm density” experiments, 20 worms were placed onto the lawn and left at 20° C. for 3 hours. For “high worm density” experiments, approximately 120 worms were placed onto the bacterial lawn and left at 20° C. for 3 hours. Aggregation behavior was quantified as the number of animals that were in touch with two or more animals at greater than 50% of their body length.

[3] = tested on: P. redivivus males and females; assay: Retention assay; type: in vivo
Method: (§1) OP50 E. coli was grown on a standard 5 cm agar plate (made with standard Nematode Growth Medium). The bacterial lawn was 16 mm in diameter and was grown overnight at 20° C. before being used in trials. Two 4 mm spots (0.6 μL) were placed on opposite sides of the bacterial lawn (using a transparent template to guide spot placement), and several minutes elapsed for the liquid to settle in before placing nematodes down on the assay. Recording began immediately upon worm placement. 0.6 μL of the control was placed on one side of the lawn, and 0.6 μL of the experimental cue was placed on the other side of the lawn, changing the location of the cue throughout trials between left/right and top/bottom to avoid bias.
(§2) Nematodes were isolated by gender at the L4 stage the day before being used in trials as developed adults. Worms were evenly divided and placed at two points equidistant from the foci of the scoring region. Trials were recorded for 20 minutes, and frames were collected for analysis at 1 frame per second. Results were averaged from at least three different trials. For every nematode species in this study, a different total number of worms (using water in both scoring regions) was tested to determine the minimum number of worms necessary for consistent unbiased results over a 20 minute trial. The total number of worms used in the multiple species assays depended on that species' optimal parameters. 10 worms were used for P. redivivus males and females, 20 worms were used for C. elegans males and O. dolichuridae males, and 14 worms were used for S. glaseri males. The Automated Software was used to compare worm occupancy in each scoring region over time, and the Chemotaxis Index (Bargmann et al., Cell 74:515-27 (1993), which is hereby incorporated by reference in its entirety) was adapted to score preference or avoidance to each ascaroside.
(§3) A video camera attached to the microscope produced a digital video stream, which was then analyzed. The ratio of the time the average worm spent in each region of interest was calculated for every trial. For ease of implementation, all worms in a single experiment were assumed to be roughly the same size. Thus worm pixels were counted instead of whole worms, allowing fractions of a worm in the region of interest to be taken into account. It also eliminated the need for a shape-based worm identification algorithm, and allowed each frame to be analyzed independently. A band-pass filter was applied to each frame to eliminate the effect of uneven lighting and also accentuate the worms against the background. The worm was then identified after thresholding the filtered image. Throughout each experiment, the locations and sizes of the regions of interest were known. Through the filtering described above, it is known which pixels are occupied by worms and which ones are not. Thus, the ratio of worm-pixels to all pixels inside the region of interest can be calculated to produce the worm-occupancy ratio. This calculation was done for every frame, giving a plot output of worm-occupancy ratio vs. time for each region.

C. elegans [4] = assay: Ascaroside function (Table 12); type: in vivo, Caenorhabditis elegans; set-up: key to Attract Females/Herm. / Promote Dauer Formation / Attract Males: A very strong result of affecting nematode behavior is designated in the table as “strong.”; details: listed = has this function
Method: (§4) Various ascarosides and ascaroside blends were administered to various nematodes described below (Table 12). […] A very strong result of affecting nematode behavior is designated in the table as “strong.”

Panagrellus redivivus = assay: Ascaroside function (Table 12); type: in vivo; details: listed = has this function
Method: as §4

S. feltiae = assay: Ascaroside function (Table 12); type: in vivo, Steinernema feltiae; details: listed = has this function
Method: as §4

C. elegans [5] = details: cited from earlier work
C. elegans [6] = details: in vivo; cited from earlier work
C. elegans dauer larvae = assay: Dispersal assay; type: in vivo; details: physiological concentration; 0.25% E. coli added; food-only control approximately 35%
Method: C. elegans dauer juveniles were washed with MILLI-Q water 3 times, placed into 6 cm petri dishes with a small amount of water, and rested overnight. Approximately 200-300 nematodes in 10 μl of water were placed on an agar plate, to which 2 μl of treatment was added. The liquid culture that produced 60% dauer animals was centrifuged, filtered with a 0.45 μm filter, and used as a positive control for dispersal. Thereafter, media were lyophilized and resuspended in MILLI-Q water 5 times. 2 μl to 10 μl of nematode suspension was used for the assay. As a negative control, 0.5% E. coli (HB101) was prepared in S-complete, lyophilized, and adjusted to the final volume of 0.25% E. coli in the assay.
Nematodes were quantified using Image J software (Image Processing and Analysis in Java, National Institutes of Health). The number of nematodes visualized and counted using Image J is illustrated in FIG. 63B. Nematodes inside the circle were subtracted manually from the total number of worms counted because of the location of their placement. Each treatment was replicated 9-11 times. The graph was normalized to the positive control, the dauer conditioned medium.
A synthetic blend of these ascarosides was then tested for dispersal activity, using the dauer conditioned medium as a positive control. The media was estimated to contain approximately half of the original 0.5% E. coli (HB101) food source. […]

[7] = tested on: Several of the tested nematode species; assay: Retention assay; type: in vivo; details: 1 nM, 1 μM and 1 mM tested
Method: as §1, §2, §3

C. elegans males = assay: Attraction assay (long-range, point source); type: in vivo; details: 10 cm plate
Method: 10 cm standard chemotaxis plates were prepared (Bargmann et al., Cell 74:515-27 (1993), which is hereby incorporated by reference in its entirety) and stored at 4° C. until the day before use. Standard 1 cm-diameter copper pipes were sectioned into 1 cm-tall segments to use for the holding chambers. The females/hermaphrodites were isolated overnight, washed 3 times in M9 buffer, and then allowed to wander on a plate pre-conditioned with 50 uL of 1000× treptomycin for 2 hours to kill any bacteria that might produce a false positive attractant. The nematodes were then washed 3 times, and the supernatant from the last wash was placed in a copper chamber, as the control, 1 cm from the border of the 10 cm plate. The nematodes were suspended in M9 within the copper chamber, 1 cm from the border opposite the control chamber. After 6 hours, they were subsequently removed and replaced with 3 μL of 1M sodium azide. 100 C. elegans adult males were isolated overnight, washed several times in ddH2O, and placed at the center of the agar plate. After several hours, males paralyzed within 2 cm of each region were scored. The Chemotaxis Index (Bargmann et al., Cell 74:515-27 (1993), which is hereby incorporated by reference in its entirety) was then used to score male chemotaxis to either point source.

S. glaseri = assay: Ascaroside function (Table 12); type: in vivo; details: listed = has this function
Method: as §4

Compound | Attract Males (C. elegans [4]) | Promote Dauer Formation (C. elegans [4]) | Dispersal (of dauer larvae, infectious juveniles) (S. feltiae) | dauer-inducing activity (C. elegans [6]) | dispersing nematodes, normalized to the percent of the positive control response (C. elegans dauer larvae) | male attraction from a distance (C. elegans males) | Dispersal (of dauer larvae, infectious juveniles) (C. elegans [4]) | further results
C[C@H](CCC(=O)O)O[C@@H]1O[C@@H](C)[C@H](OC(=O)c2c[nH]c3ccccc23)C[C@H]1O [icas#9] | ([strong]) | icas#9 | icas#9 | moderate dauer-inducing activity; also recorded: individually promote dauer entry |  |  |  | attraction in spot attraction assay (C. elegans [1]; 1 pmol (high concentrations), N2 hermaphrodites and him-5 males): attractive to both C. elegans sexes; also recorded: attracted both males and hermaphrodites; attraction of hermaphrodites (C. elegans [1]; low concentrations, N2 hermaphrodites): strongly attracted; attraction of males (C. elegans [1]; low concentrations, males): males are not attracted; aggregation of solitary and social hermaphrodites (C. elegans [2]; constant background concentration): increased aggregation; also recorded: strongly increased the propensity; concentration window for hermaphrodite attraction and aggregation (C. elegans [2]; in vivo): femtomolar to picomolar; response of P. redivivus males [3]: no response; Attract Females/Herm. (C. elegans [4]): icas#9 ([strong]); Repel Females/Herm. (Panagrellus redivivus): icas#9; aggregation (C. elegans [5]; in vivo): aggregating stimulant
C[C@H](CC/C=C/C(=O)Nc1ccc(C(=O)O)cc1)O[C@@H]1O[C@@H](C)[C@H](O)C[C@H]1O [ascr#8] | ascr#8 | ascr#8 ([strong]) | ascr#8 | individually promote dauer entry | 50% | not active | ascr#8 | preference for ascaroside-conditioned areas [7]: preferred areas conditioned; Attract Females/Herm. (Panagrellus redivivus): ascr#8; Attract Males (Panagrellus redivivus): ascr#8; Attract Males (S. glaseri): ascr#8; male attraction (C. elegans [5]; in vivo): major component of the male-attracting signal
CC(=O)CCC[C@@H](C)O[C@@H]1O[C@@H](C)[C@H](O)C[C@H]1O [ascr#2] | ascr#2 | ascr#2 ([strong]) | ascr#2 | individually promote dauer entry | 40% | chemotax towards | ascr#2 | amount as low as which elicited C. elegans male attraction (C. elegans males): 500 attomol; most active amount for attraction (C. elegans [5]; from 1 μM concentration): ~1 pmol
